Reference: ChEMBL document CHEMBL1133412, “Rational design, synthesis and structure-activity relationships of antitumor (E)-2-benzylidene-1-tetralones and (E)-2-benzylidene-1-indanones” (Bioorg Med Chem Lett, 2000)

Legend:
Format in all cases: functional, cell-based
MCF7 = assay: Cytotoxicity evaluated against MCF-7 tumor cell lines; Significant activity; conditions: Homo sapiens
NCI-H292 = assay: Cytotoxicity evaluated against H292 tumor cell lines; Significant activity; conditions: Homo sapiens
K562 = assay: Cytotoxicity evaluated against K562 tumor cell lines; Significant activity; conditions: Homo sapiens
NIH3T3 = assay: Cytotoxicity evaluated against NIH3T3 tumor cell lines; Significant activity; conditions: Mus musculus
WI-38 = assay: Cytotoxicity evaluated against WI38 tumor cell lines; Significant activity; conditions: Homo sapiens
NCI-H596 = assay: Cytotoxicity evaluated against H596 tumor cell lines; Significant activity; conditions: Homo sapiens
CCRF-CEM = assay: Cytotoxicity evaluated against CEM tumor cell lines; Significant activity; conditions: Homo sapiens
L1210 = assay: Cytotoxicity evaluated against L1210 tumor cell lines; Significant activity; conditions: Mus musculus
HL-60 = assay: Cytotoxicity evaluated against HL-60 tumor cell lines; Significant activity; conditions: Homo sapiens
A549 = assay: Cytotoxicity evaluated against A549 tumor cell lines; significant activity; conditions: Homo sapiens
WIL2 = assay: Cytotoxicity evaluated against WIL2 tumor cell lines; Significant activity; conditions: Homo sapiens
B16 = assay: Cytotoxicity was evaluated against B16 tumor cell lines; Significant activity; conditions: Mus musculus
Jurkat = assay: In vitro test for antitumor activity against human Jurkat cell line using a formazan dye (MTT) conversion assay.
MOLT-4 = assay: Cytotoxicity was evaluated against Molt-4 tumor cell lines; conditions: Homo sapiens

Row | IC50 (Jurkat) [µM] | SMILES | Cytotoxicity (MCF7) | Cytotoxicity (NCI-H292) | Cytotoxicity (K562) | Cytotoxicity (NIH3T3) | Cytotoxicity (WI-38) | Cytotoxicity (NCI-H596) | Cytotoxicity (CCRF-CEM) | Cytotoxicity (L1210) | Cytotoxicity (HL-60) | Cytotoxicity (A549) | Cytotoxicity (WIL2) | Cytotoxicity (B16) | Cytotoxicity (MOLT-4)
1 | 9 | COc1cc2c(cc1OC)C(=O)/C(=C/c1cccc(Cl)c1)CC2 | Significant activity | Significant activity | Significant activity | Significant activity | Significant activity | Significant activity | Significant activity | Significant activity | Significant activity | Significant activity | Significant activity | Significant activity | Significant activity
2 | 14.5 | COc1cc2c(cc1OC)C(=O)/C(=C/c1cc([N+](=O)[O-])ccc1O)C2 | Significant activity | Significant activity | Significant activity | Significant activity | Significant activity | Significant activity | Significant activity | Significant activity | Significant activity | Significant activity | Significant activity | Significant activity | Significant activity
3 | 2 | COc1cc2c(cc1OC)C(=O)/C(=C/c1cc([N+](=O)[O-])cc([N+](=O)[O-])c1)CC2 | Significant activity | Significant activity | Significant activity | Significant activity | Significant activity | Significant activity | Significant activity | Significant activity | Significant activity | Significant activity | Significant activity | Significant activity | Significant activity
4 | 7 | COc1cc2c(cc1OC)C(=O)/C(=C/c1cc(Cl)cc(Cl)c1)CC2 | Significant activity | Significant activity | Significant activity | Significant activity | Significant activity | Significant activity | Significant activity | Significant activity | Significant activity | Significant activity | Significant activity | Significant activity | Significant activity
5 | > 50 | COc1cc2c(cc1OC)C(=O)/C(=C/c1cc(OC)c(OC)c(OC)c1)CC2 | Significant activity | Significant activity | Significant activity | Significant activity | Significant activity | Significant activity | Significant activity | Significant activity | Significant activity | Significant activity | Significant activity | Significant activity | Significant activity
6 | 1.16 | COc1cc2c(cc1OC)C(=O)/C(=C/c1ccc(O)c(C)c1)C2 | Significant activity | Significant activity | Significant activity | Significant activity | Significant activity | Significant activity | Significant activity | Significant activity | Significant activity | Significant activity | Significant activity | Significant activity | Significant activity
7 | 0.4 | COc1cc2c(cc1OC)C(=O)/C(=C/c1cc(C)c(OC(C)=O)c(C)c1)C2 | Significant activity | Significant activity | Significant activity | Significant activity | Significant activity | Significant activity | Significant activity | Significant activity | Significant activity | Significant activity | Significant activity | Significant activity | Significant activity
8 | 4 | COc1cc2c(cc1OC)C(=O)/C(=C/c1cc(C)cc(C)c1)CC2 | Significant activity | Significant activity | Significant activity | Significant activity | Significant activity | Significant activity | Significant activity | Significant activity | Significant activity | Significant activity | Significant activity | Significant activity | Significant activity
9 | 0.0235 | COc1cc2c(c(N)c1OC)C(=O)/C(=C/c1cc(C)c(N)c(C)c1)C2 | Significant activity | Significant activity | Significant activity | Significant activity | Significant activity | Significant activity | Significant activity | Significant activity | Significant activity | Significant activity | Significant activity | Significant activity | Significant activity
10 | 5 | COc1cc(/C=C2\CCc3cc(OC)c(OC)cc3C2=O)cc(OC)c1 | Significant activity | Significant activity | Significant activity | Significant activity | Significant activity | Significant activity | Significant activity | Significant activity | Significant activity | Significant activity | Significant activity | Significant activity | Significant activity
11 | 2.2 | CCOC(=O)COc1c(C)cc(/C=C2\Cc3cc(OC)c(OC)cc3C2=O)cc1C | Significant activity | Significant activity | Significant activity | Significant activity | Significant activity | Significant activity | Significant activity | Significant activity | Significant activity | Significant activity | Significant activity | Significant activity | Significant activity
12 | 19 | COc1cc2c(cc1OC)C(=O)/C(=C/c1ccc(O)cc1)CC2 | Significant activity | Significant activity | Significant activity | Significant activity | Significant activity | Significant activity | Significant activity | Significant activity | Significant activity | Significant activity | Significant activity | Significant activity | Significant activity
13 | 9 | COc1cc2c(cc1OC)C(=O)/C(=C/c1cccc([N+](=O)[O-])c1)CC2 | Significant activity | Significant activity | Significant activity | Significant activity | Significant activity | Significant activity | Significant activity | Significant activity | Significant activity | Significant activity | Significant activity | Significant activity | Significant activity
14 | 17 | COc1cc2c(cc1OC)C(=O)/C(=C/c1cccc(C)c1)CC2 | Significant activity | Significant activity | Significant activity | Significant activity | Significant activity | Significant activity | Significant activity | Significant activity | Significant activity | Significant activity | Significant activity | Significant activity | Significant activity
